This is an account of results in article PMC4791210 (International immunopharmacology, 2015).

What is called EC50 is the concentration needed to bring the measured effect to its halfway point. A word on the IC50: it is the concentration needed to halve the response being measured.

One assay relates to human neutrophils. In words: Direct activation of Ca2+ flux in human neutrophils. It is filed as cell-based. The conditions noted are these: Neutrophil, read-out: Human Neutrophils Activation (EC50, μM). Background: A change in cytosolic calcium serves as a functional read-out for many receptors and channels.
The target in assay [1] is T1, FPR1 (Homo sapiens, UniProt P21462).
T1 sequence (P21462 1-350): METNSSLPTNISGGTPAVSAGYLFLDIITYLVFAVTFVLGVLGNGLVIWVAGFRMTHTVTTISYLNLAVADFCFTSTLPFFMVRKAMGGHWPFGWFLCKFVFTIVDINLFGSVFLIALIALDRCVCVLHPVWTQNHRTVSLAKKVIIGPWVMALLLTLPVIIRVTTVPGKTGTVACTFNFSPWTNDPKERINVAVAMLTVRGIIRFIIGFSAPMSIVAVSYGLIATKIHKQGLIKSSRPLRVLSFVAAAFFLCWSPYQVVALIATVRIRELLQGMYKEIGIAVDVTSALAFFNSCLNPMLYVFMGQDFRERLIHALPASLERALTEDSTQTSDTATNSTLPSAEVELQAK
In words: Direct activation of Ca2+ flux in FPR1 transfected HL-60 cells. It is filed as cell-based.

Assay [2] has as its system FPR1. The conditions noted are these: high concentrations; cited from earlier work.
The subject of a further assay is human monocytes. Particulars: read-out: IC50, inhibition of fMLF-induced Ca2+ flux in human monocytes; cited from earlier work.
For assay [3], the system named is fMLF-stimulated neutrophils. The conditions noted are these: result in words; cited from earlier work.
The test system of assay [4] is FPR1. The conditions noted are these: read-out: IC50, blocking of fMLF binding to FPR1; cited from earlier work.
For assay [5], the target named is T1, FPR1. Particulars: cited from earlier work.

As to `C[C@H](CCC(=O)O)[C@H]1CC[C@H]2[C@@H]3[C@H](O)C[C@@H]4C[C@H](O)CC[C@]4(C)[C@H]3CC[C@]12C` [Chenodeoxycholic acid (CDCA), Chenodeoxycholic acid], the EC50 with human neutrophils came out at 49.5 ± 5.1 µM; on FPR1 [1] it was 40.3 ± 4.5 µM. In the assay with FPR1 [2], the “Concentrations that antagonize FPR1 and inhibit 3H-fMLF binding” value was not below 100 µM. In addition, the IC50 with human monocytes is 40 µM.

As for `C=C(C)[C@@H]1CC[C@]2(C(=O)O)CC[C@]3(C)[C@H](CC[C@@H]4[C@@]5(C)CC[C@H](O)C(C)(C)[C@@H]5CC[C@]43C)[C@@H]12` [betulinic acid], the “Effect on fMLF-induced release of HNE” value in assay [3] is reported as “did not affect”.

Take `COc1ccc(C[C@H]2COC(=O)[C@@H]2Cc2ccc(O)c(O)c2)cc1OC` [Lignan PP-6, (2R, 3R)-2-(3′,4′-dihydroxybenzyl)-3-(3″,4″-dimethoxybenzyl)butyrolactone]: the half-maximal inhibitory concentration (IC50) in the assay on FPR1 [4] is approximately 1500 nM.

Consider `CC(=O)OC1COC(OC2C(O)C(C)OC(OC3C(OC4CCC5(C)C(CCC6(C)C5CC=C5C7CC(C)(C)CCC7(C(=O)O)CCC56C)C4(C)CO)OCC(O)C3O)C2O)C(O)C1OC(C)=O` [SMG-1, hederagenin 3-O-(3,4-O-di-acetyl-α-L-arabinopyranoside)-(1→3)-α-l-rhamnopyranosyl-(1→2)-α-l-arabinopyranoside], for which, at FPR1 [5], the “Binding of fluorescent FPR1 ligand in human neutrophils” value was “blocked binding”.
